Assay results taken from patent US20220249643A1, “ANTI-NEOPLASTIC COMBINED PHARMACEUTICAL COMPOSITION AND APPLICATION THEREOF” (priority 2019, published 2022).
“Also recorded” adds a separate entry of the source. Like-named read-outs stand apart in the source and are kept apart here.

Legend:
[1] = tested on: Plasmodium yoelii; assay: Infection rate of Plasmodium (parasitemia) in tumor-bearing mice, Plasmodium yoelii; type: in vivo
[2] = tested on: Plasmodium chabaudi
Description: (III) Preparation of thin blood film and microscopic examination: about 1-1.5 μL of blood was collected from tails of mice and smeared on slides so that a long tongue-shaped thin blood film with a length of 2.5 cm was prepared and blow-dried with a blower. The blood film was infiltrated with methanol for 1 min, stained with 1× Giemsa stain for 30 min, rinsed with tap water and blow-dried. The infection rate of Plasmodium was observed by a 100× oil immersion objective. Changes of the infection rate of Plasmodium were observed.
(V) Inoculation of tumor-bearing mice: 7 days after tumor was subcutaneously inoculated, each mouse was inoculated with 0.2 mL of Plasmodium, that is, 5×10^5 Plasmodium parasites.
(III) Statistics of the infection rate of Plasmodium: the infection rate of Plasmodium was evaluated by a percentage of red blood cells infected with Plasmodium in mice, where the calculation formula was (the number of red blood cells infected with Plasmodium/a total number of red blood cells)×100%. Specific procedures were as follows: blood was taken from tail veins and smeared on a slide, fixed with methanol, and stained with Giemsa stain. The number of red blood cells infected with Plasmodium and the total number of red blood cells were observed under a microscope. The total number of red blood cells was about 1000.

[3] = tested on: mouse Lewis lung carcinoma (LLC); type: in vivo, C57BL/6 mice; conditions: vs Con
[4] = tested on: mouse Lewis lung carcinoma (LLC); type: in vivo, C57BL/6 mice; conditions: for Significance, survival (intergroup comparison): vs Con
[5] = type: in vivo, C57BL/6 mice
Description: The effects of the chemotherapeutic agent and Plasmodium infection on the weight of tumor-bearing mice were observed.

[6] = Example 5, CTX 20 mg/kg×3 ip day 6, 13, 20, Py day 7
[7] = Example 6, CTX 20 mg/kg×3 ip day 6, 13, 20, Pc day 7
[8] = Example 1, GEM 100 mg/kg ip on day 3
[9] = Example 1, GEM 100 mg/kg ip on day 6
[10] = Example 2, GEM divided 50 mg/kg ip day 6 and day 13
[11] = Example 2, GEM single dose 100 mg/kg ip day 6
[12] = Example 3, GEM 50 mg/kg ip day 6 and day 13, Py day 7
[13] = Example 4, GEM 50 mg/kg ip day 6 and day 13, Pc day 7

In the case of O=P1(N(CCCl)CCCl)NCCCO1 (centres unmarked) [CTX, cyclophosphamide], the “effect on Plasmodium infection” value ([1]; Example 5, CTX 20 mg/kg×3 ip) is reported as “relatively small effect on Plasmodium”, the “effect on Plasmodium infection” value ([2]; Example 6, CTX 20 mg/kg×3 ip) is reported as “relatively small effect on Plasmodium chabaudi” and the “Significance, tumor growth (intergroup comparison)” value (“Significance, tumor growth” below) [3, 6] is reported as “* (“*” represents p<0.05)”. For the same molecule, the “Significance, tumor growth” value [3, 7] was “* (“*” represents p<0.05)”, the median survival time [4, 6] was 37 days and the “Significance, survival (intergroup comparison)” value (from here on “Significance, survival”) ([4]; Example 5) was “** (“**” represents p<0.01)”. The median survival time [4, 7] was 39.5 days, the “Significance, survival” value ([4]; Example 6) was “* (“*” represents p<0.05)” and the “effect on weight of tumor-bearing mice” value ([5]; Example 5, CTX 20 mg/kg×3 ip, Py day 7) was “affected little”. For the same molecule, the “effect on weight of tumor-bearing mice” value ([5]; Example 6, CTX 20 mg/kg×3 ip, Pc day 7) was “affected little”.
For [NH2][Pt]([NH2])([Cl])[Cl] [DDP, cis-platinum], the “effect on Plasmodium infection (parasitemia)” value ([1]; Example 8, DDP 1 mg/kg×7 ip, vs single Plasmodium yoelii group) was “inhibitory effect on Plasmodium”, the “Significance, tumor growth” value ([3]; Example 8, DDP 1 mg/kg×7 ip every two days from day 7, Py day 7) was “** (“**” represents p<0.01)” and the median survival time ([4]; Example 8, DDP 1 mg/kg×7 ip, Py day 7) was 30 days.
For Nc1ccn([C@@H]2O[C@H](CO)[C@@H](O)C2(F)F)c(=O)n1 [GEM, gemcitabine], the “effect on Plasmodium infection” value ([1]; Example 1, GEM 100 mg/kg ip day 3 or day 6) was “certain inhibitory effect on Plasmodium yoelii but will not eliminate Plasmodium”, the “effect on Plasmodium infection” value ([1]; Example 2, GEM single dose or divided doses, total 100 mg/kg) was “certain inhibitory effect on Plasmodium” and the “effect on Plasmodium infection” value ([1]; Example 3, GEM 50 mg/kg ip day 6 and day 13) was “certain inhibitory effect on Plasmodium yoelii but will not eliminate Plasmodium yoelii”. For the same molecule, the “effect on Plasmodium infection” value ([2]; Example 4, GEM 50 mg/kg ip day 6 and day 13) was “inhibitory effect on Plasmodium chabaudi but will not eliminate Plasmodium”, the “Significance, tumor growth” value [3, 8] was “** (“**” represents p<0.01)” and the “Significance, tumor growth” value [3, 9] was “** (“**” represents p<0.01)”. For the same molecule, the “Significance, tumor growth” value [3, 10] was “** (“**” represents p<0.01)”, the “Significance, tumor growth” value [3, 11] was “** (“**” represents p<0.01)” and the “Significance, tumor growth” value [3, 12] was “** (“**” represents p<0.01)”. For the same molecule, the “Significance, tumor growth” value [3, 13] was “** (“**” represents p<0.01)”, the median survival time [4, 8] was 34.5 days and the median survival time [4, 9] was 33 days. The “Significance, survival” value [4, 8] was “* (“*” represents p<0.05)”, the “Significance, survival” value [4, 9] was “** (“**” represents p<0.01)” and the median survival time [4, 10] was 38.5 days. For the same molecule, the median survival time [4, 11] was 33 days, the median survival time [4, 12] was 36 days and the “Significance, survival” value [4, 12] was “** (“**” represents p<0.01)”. For the same molecule, the median survival time [4, 13] was 35 days, the “effect on weight of tumor-bearing mice” value ([5]; Example 1, GEM 100 mg/kg ip, Py day 7) was “affected little” and the “effect on weight of tumor-bearing mice” value ([5]; Example 2, GEM total 100 mg/kg ip, Py day 7) was “affected little”. The “effect on weight of tumor-bearing mice” value [5, 12] was “affected little” and the “effect on weight of tumor-bearing mice” value [5, 13] was “affected little”.
In the case of Cc1c(O)cccc1C(=O)N[C@@H](CSc1ccccc1)[C@H](O)CN1C[C@H]2CCCC[C@H]2C[C@H]1C(=O)NC(C)(C)C [NFV, nelfinavir], the “effect on Plasmodium infection” value ([1]; Example 12, NFV 400 mg/kg×10) is reported as “relatively small effect on Plasmodium”, the “Significance, tumor growth” value ([3]; Example 12, NFV 400 mg/kg×10, intraperitoneal injection, from day 10, Py day 7) is reported as “** (“**” represents p<0.01)” and the median survival time ([4]; Example 12, NFV 400 mg/kg×10 from day 10, Py day 7) is reported as 34 days. For the same molecule, the “toxic and side effects on tumor-bearing mice” value ([5]; Example 12, NFV 400 mg/kg×10) was “will not increase toxic and side effects on tumor-bearing mice” and the “effect on weight of tumor-bearing mice” value ([5]; Example 12, continuous administration of nelfinavir alone) was “relatively small effect on the weight of tumor-bearing mice”.
With Nc1nc2[nH]cc(CCc3ccc(C(=O)N[C@@H](CCC(=O)O)C(=O)O)cc3)c2c(=O)[nH]1 [PEM, pemetrexed] the “effect on Plasmodium infection” value ([1]; Example 7, PEM 20 mg/kg×6 ip) was “relatively small effect on Plasmodium; also recorded: no inhibitory effect on Plasmodium yoelii”, the “Significance, tumor growth” value ([3]; Example 7, PEM 20 mg/kg×6 ip day 3, 7, 10, 14, 17, 21, Py day 7) was “** (“**” represents p<0.01)” and the median survival time ([4]; Example 7, PEM 20 mg/kg×6 ip, Py day 7) was 32.5 days.
With CC(=O)O[C@@]12CO[C@@H]1C[C@H](O)[C@@]1(C)C(=O)[C@H](O)C3=C(C)[C@@H](OC(=O)[C@H](O)[C@@H](NC(=O)OC(C)(C)C)c4ccccc4)C[C@@](O)([C@@H](OC(=O)c4ccccc4)[C@H]21)C3(C)C [docetaxel] the “effect on Plasmodium infection” value ([1]; Example 10, DTX high dosage 2 mg/kg×3) was “significantly inhibit Plasmodium”, the “effect on Plasmodium infection” value ([1]; Example 10, DTX low dosage 2.2 mg/kg×3) was “relatively small effect on Plasmodium” and the “effect on Plasmodium infection” value ([1]; Example 10, DTX medium dosage 6.7 mg/kg×3) was “significantly inhibit Plasmodium”. The “effect on weight of tumor-bearing mice” value ([5]; Example 10, in the combined therapy, DTX high dosage) was “very significant effect in reducing the weight of the tumor-bearing mice”, the “effect on weight of tumor-bearing mice” value ([5]; Example 10, in the combined therapy, DTX low dosage) was “relatively small effects” and the “effect on weight of tumor-bearing mice” value ([5]; Example 10, in the combined therapy, DTX medium dosage) was “relatively small effects”.
With COc1cc([C@@H]2c3cc4c(cc3[C@@H](O[C@@H]3O[C@@H]5CO[C@@H](C)O[C@H]5[C@H](O)[C@H]3O)[C@H]3COC(=O)[C@H]23)OCO4)cc(OC)c1O [etoposide] the “effect on Plasmodium infection” value ([1]; Example 11, VP16 low and high dosage) was “obvious inhibitory effect on Plasmodium”.
For CO[C@@]12[C@H](COC(N)=O)C3=C(C(=O)C(C)=C(N)C3=O)N1C[C@@H]1N[C@@H]12 [mitomycin], the “effect on Plasmodium infection” value ([1]; Example 9, MMC low, medium, high dosage, the higher concentration, the more obvious) was “certain inhibitory effect on Plasmodium” and the “effect on weight of tumor-bearing mice” value ([5]; Example 9, three combined treatment groups) was “affected little”.
